Columns and labels:
P-glycoprotein = test system: P-glycoprotein; set-up: method as in PMID 32652442; conditions: cited from earlier work
[1] = Part B safety: adverse events (NCI CTCAE v5.0), safety population; assay type: in vivo, human (patients with solid tumors); conditions: by treatment period
Method: Part B of the core phase assessed the effect of the strong CYP3A inhibitor itraconazole on the PK of pamiparib in patients with solid tumors. All patients received a single dose of oral pamiparib 20 mg on days 1 and 7, and oral itraconazole 200 mg QD on days 3–8. The 20-mg pamiparib dose, the lowest dose strength available and one-sixth of the highest phase 1 dose (120 mg), was deemed sufficient to cover the plasma exposure increase due to complete blockade of CYP3A by itraconazole. Part B patients fasted for at least 8 h before and at least 4 h after pamiparib administration, except for day 7 upon which itraconazole administration occurred ~ 30 min after completing a meal and pamiparib administration followed within 5 min of itraconazole administration. Blood samples for PK analysis were obtained on days 1 and 7 at the same time points listed above for Part A. After completing the core phase in Part A and Part B, patients were offered participation in the extension phase, in which they were to receive pamiparib PO BID in 28-day cycles until disease progression, unacceptable toxicity, withdrawal of consent, or any other reason for discontinuation.
(§1) Adverse events (AEs) were monitored throughout the study and were graded according to the National Cancer Institute Common Terminology Criteria v5.0.
(§2) The safety population included all patients who received at least one dose of pamiparib. […] Plasma PK parameters were calculated from pamiparib concentration–time profiles using standard noncompartmental methods. PK parameters were calculated using Phoenix WinNonlin v6.4 or higher (Certara, Princeton, NJ, USA). […] Data for each treatment part were analyzed separately. Log-transformed AUC and Cmax values were analyzed using a linear mixed-effect model analysis assuming a fixed effect for treatment and a random effect for patients. The study design called for ~ 24 patients (12 in each part) to be enrolled to ensure at least 20 (10 in each part) completed the study. This sample size was based on the precedent set by other PK studies of a similar nature and was not based on power calculations.

CYP2C8 = test system: CYP2C8; set-up: method as in PMID 21838784; conditions: cited from earlier work
CYP3A rather than CYP2C8 = test system: CYP3A rather than CYP2C8; set-up: method as in PMID 11136296; conditions: cited from earlier work
[2] = set-up: method as in PMID 27745744; conditions: cited from earlier work
[3] = Part A safety: adverse events (NCI CTCAE v5.0), safety population; assay type: in vivo, human (patients with advanced solid tumors); conditions: Part A (N = 12); by treatment period
Method: This was an open-label, parallel-group, phase 1 study consisting of a 2-part core phase and an extension phase. Only results for the core phases are reported herein (Supplementary Fig. 1). […] Blood samples for PK analysis were obtained on days 1 and 10 at predose, and at 0.5, 1, 2, 4, 6, 9, 12, 24, and 48 h postdose. Pamiparib plasma concentrations were determined using a validated liquid chromatography–mass spectrometry/mass spectrometry method (lower limit of quantification 1.0 ng/mL) at Covance Laboratory Services (Salt Lake City, Utah).
as §1, §2

[4] = Part B (N = 13; N = 12 for pamiparib with itraconazole)
[5] = olaparib with itraconazole administration

For `CNCc1ccc(-c2[nH]c3cc(F)cc4c3c2CCNC4=O)cc1` [rucaparib], the P-glycoprotein substrate status (P-glycoprotein) is listed as “substrate of P-glycoprotein”.

In the case of `CCC(C)n1ncn(-c2ccc(N3CCN(c4ccc(OCC5COC(Cn6cncn6)(c6ccc(Cl)cc6Cl)O5)cc4)CC3)cc2)c1=O` (centres unmarked) [Itraconazole, itraconazole, reference compound], the “All TEAEs (any grade), patients” value [1, 4] is reported as 2 (15.4) n (%), the “Any treatment-related TEAE, patients” value [1, 4] is reported as 1 (7.7) n (%) and the “Grade >= 3 TEAE, patients” value [1, 4] is reported as 1 (7.7) n (%). For the same compound, the “Serious AE, patients” value [1, 4] was 1 (7.7) n (%), the “Treatment-related TEAE related to itraconazole only, patients” value [1, 4] was 0 n (%) and the “Treatment-related TEAE related to pamiparib only, patients” value [1, 4] was 0 n (%). For the same compound, the “Serious AE related to both, patients” value ([1]; Part B) was 0 n (%), the “Serious AE related to itraconazole only, patients” value ([1]; Part B) was 0 n (%) and the “Serious AE related to pamiparib only, patients” value ([1]; Part B) was 0 n (%). For the same compound, the “in vivo CYP2C8 inhibition” value (CYP2C8; inferred from montelukast clinical study) was “negligible” and the “specificity of inhibition for CYP3A rather than CYP2C8” value (CYP3A rather than CYP2C8) was ~ 100 fold.

In the case of `Cn1ncnc1[C@H]1c2n[nH]c(=O)c3cc(F)cc(c23)N[C@@H]1c1ccc(F)cc1` [talazoparib], the P-glycoprotein substrate status (P-glycoprotein) is listed as “substrate of P-glycoprotein”.

For `O=C(c1cc(Cc2n[nH]c(=O)c3ccccc23)ccc1F)N1CCN(C(=O)C2CC2)CC1` [olaparib], the “AUC treatment ratio with itraconazole” value [2, 5] is listed as 2.70, the “Cmax treatment ratio with itraconazole” value [2, 5] is listed as 1.42 and the “AUC increase with itraconazole observed in one patient” value ([2]; olaparib with itraconazole, one patient) is listed as “sevenfold”. The P-glycoprotein substrate status (P-glycoprotein) was “substrate of P-glycoprotein”.

In the case of `CC(C)(O)c1ccccc1CC[C@@H](SCC1(CC(=O)O)CC1)c1cccc(/C=C/c2ccc3ccc(Cl)cc3n2)c1` [montelukast], the “effect of CYP2C8 inhibitor gemfibrozil on montelukast AUC” value (CYP2C8) is listed as “markedly increased” and the “effect of itraconazole coadministration on montelukast PK” value (CYP2C8) is listed as “no significant effects”.

In the case of `CO[C@H]1/C=C/O[C@@]2(C)Oc3c(C)c(O)c4c(O)c(c(/C=N/N5CCN(C)CC5)c(O)c4c3C2=O)NC(=O)/C(C)=C\C=C\[C@H](C)[C@H](O)[C@@H](C)[C@@H](O)[C@@H](C)[C@H](OC(C)=O)[C@@H]1C` [Rifampin, rifampin, reference compound], the “Any treatment-related TEAE, patients” value [3] is reported as 1 (8.3) n (%), the “Grade >= 3 TEAE, patients” value [3] is reported as 0 n (%) and the “Serious AE, patients” value [3] is reported as 0 n (%). The “Treatment-related TEAE related to both, patients” value [3] was 0 n (%), the “Treatment-related TEAE related to pamiparib only, patients” value [3] was 0 n (%) and the “Treatment-related TEAE related to rifampin only, patients” value [3] was 1 (8.3) n (%).

In the case of `C[C@]1(c2nc3c(C(N)=O)cccc3[nH]2)CCCN1` [veliparib], the P-glycoprotein substrate status (P-glycoprotein) is listed as “substrate of P-glycoprotein”.

Reference: publication PMC8149352 (Cancer Chemotherapy and Pharmacology, 2021)
